According to article PMC5926067 (Japanese Journal of Cancer Research : Gann, 1999):

Tests used:
Format in all cases: biochemical
gelatinase B (MMP-9) = gelatinase B (MMP-9) (Homo sapiens, UniProt P14780); experiment: fluorescence-labeled gelatin degradation assay, partially purified enzyme
stromelysin = stromelysin (Mus musculus, UniProt P28862); experiment: fluorescence-labeled casein degradation assay, partially purified enzyme
gelatinase A (MMP-2) = biological target: T1, gelatinase A (MMP-2) (Homo sapiens, UniProt P08253); experiment: fluorescence-labeled gelatin degradation assay, partially purified enzyme
T1 sequence (P08253 110-660): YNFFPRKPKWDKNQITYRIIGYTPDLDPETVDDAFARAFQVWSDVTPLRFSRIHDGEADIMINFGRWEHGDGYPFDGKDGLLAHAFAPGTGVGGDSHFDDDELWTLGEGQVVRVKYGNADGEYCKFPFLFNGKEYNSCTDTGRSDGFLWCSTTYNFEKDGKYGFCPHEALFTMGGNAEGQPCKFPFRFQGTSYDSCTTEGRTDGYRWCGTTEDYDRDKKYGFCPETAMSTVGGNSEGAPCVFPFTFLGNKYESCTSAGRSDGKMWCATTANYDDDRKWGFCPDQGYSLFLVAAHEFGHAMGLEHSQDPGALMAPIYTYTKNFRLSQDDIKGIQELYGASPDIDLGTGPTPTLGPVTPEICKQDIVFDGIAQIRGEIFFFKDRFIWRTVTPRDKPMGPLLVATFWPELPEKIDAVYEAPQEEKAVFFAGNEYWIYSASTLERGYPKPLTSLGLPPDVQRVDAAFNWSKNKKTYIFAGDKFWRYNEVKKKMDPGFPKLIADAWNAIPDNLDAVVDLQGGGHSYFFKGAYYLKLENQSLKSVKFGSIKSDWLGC

interstitial collagenase = biological target: T2, interstitial collagenase (Homo sapiens, UniProt P03956); experiment: fluorescence-labeled collagen degradation assay, partially purified enzyme
T2 sequence (P03956 100-469): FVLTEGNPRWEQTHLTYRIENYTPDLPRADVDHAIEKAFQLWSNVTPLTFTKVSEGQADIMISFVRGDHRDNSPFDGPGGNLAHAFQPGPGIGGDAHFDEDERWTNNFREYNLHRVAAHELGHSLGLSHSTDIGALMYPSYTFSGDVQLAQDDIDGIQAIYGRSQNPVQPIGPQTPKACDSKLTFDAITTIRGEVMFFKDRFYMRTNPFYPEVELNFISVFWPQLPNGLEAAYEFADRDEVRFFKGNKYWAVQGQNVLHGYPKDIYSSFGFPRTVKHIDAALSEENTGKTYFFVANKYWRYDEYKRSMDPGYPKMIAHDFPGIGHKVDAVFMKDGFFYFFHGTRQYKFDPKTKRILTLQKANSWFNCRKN

stromelysin, sequence (P28862 100-477): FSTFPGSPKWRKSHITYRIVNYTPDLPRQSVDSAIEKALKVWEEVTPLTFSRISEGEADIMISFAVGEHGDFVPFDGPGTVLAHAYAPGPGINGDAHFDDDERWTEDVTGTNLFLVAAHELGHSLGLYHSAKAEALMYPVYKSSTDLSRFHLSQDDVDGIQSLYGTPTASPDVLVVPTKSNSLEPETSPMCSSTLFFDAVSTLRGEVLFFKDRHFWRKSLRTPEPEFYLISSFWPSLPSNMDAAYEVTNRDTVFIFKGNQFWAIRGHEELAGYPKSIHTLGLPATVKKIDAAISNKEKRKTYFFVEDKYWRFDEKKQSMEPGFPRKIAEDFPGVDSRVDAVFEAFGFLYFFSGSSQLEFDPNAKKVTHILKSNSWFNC
gelatinase B (MMP-9), sequence (P14780 107-707): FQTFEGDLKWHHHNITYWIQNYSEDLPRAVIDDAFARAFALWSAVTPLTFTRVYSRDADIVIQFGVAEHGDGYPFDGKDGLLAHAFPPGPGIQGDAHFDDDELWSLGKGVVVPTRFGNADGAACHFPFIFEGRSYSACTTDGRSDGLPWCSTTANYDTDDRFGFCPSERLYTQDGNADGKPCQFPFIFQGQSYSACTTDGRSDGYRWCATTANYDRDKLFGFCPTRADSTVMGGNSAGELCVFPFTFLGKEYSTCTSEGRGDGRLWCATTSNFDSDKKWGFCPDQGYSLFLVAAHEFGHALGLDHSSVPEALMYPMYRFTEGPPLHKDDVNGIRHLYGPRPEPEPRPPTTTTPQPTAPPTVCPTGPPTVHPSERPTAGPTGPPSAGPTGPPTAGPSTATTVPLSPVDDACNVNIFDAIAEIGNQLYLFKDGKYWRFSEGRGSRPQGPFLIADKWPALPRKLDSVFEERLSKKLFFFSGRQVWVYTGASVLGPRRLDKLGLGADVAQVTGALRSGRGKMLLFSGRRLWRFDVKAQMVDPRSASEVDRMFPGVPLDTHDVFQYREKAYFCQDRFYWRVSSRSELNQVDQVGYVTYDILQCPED

CON1C(=O)[C@@H](NC(=O)[C@@H](CC(=O)NO)CC(C)C)Cc2ccccc21 [OPB-3206, 3S-[4-(N-hydroxyamino)-2R-isobutylsuccinyl]amino-1-methoxy-3,4-dihydrocarbostyril]
IC50 (gelatinase B (MMP-9)): 500 nM | IC50 (stromelysin): 2000 nM | IC50 (gelatinase A (MMP-2)): 5000 nM | IC50 (interstitial collagenase): 700 nM
